Data taken from US11325889B2, “Substituted 3-((3-aminophenyl)amino)piperidine-2,6-dione compounds, compositions thereof, and methods of treatment therewith” (Celgene Corporation, priority 2018, dated 2022).

Target: T1, AR protein in VCaP cells (Homo sapiens, UniProt P10275)
T1 construct: endogenous in cells; host or cells: VCaP cells
T1 sequence (P10275 1-920): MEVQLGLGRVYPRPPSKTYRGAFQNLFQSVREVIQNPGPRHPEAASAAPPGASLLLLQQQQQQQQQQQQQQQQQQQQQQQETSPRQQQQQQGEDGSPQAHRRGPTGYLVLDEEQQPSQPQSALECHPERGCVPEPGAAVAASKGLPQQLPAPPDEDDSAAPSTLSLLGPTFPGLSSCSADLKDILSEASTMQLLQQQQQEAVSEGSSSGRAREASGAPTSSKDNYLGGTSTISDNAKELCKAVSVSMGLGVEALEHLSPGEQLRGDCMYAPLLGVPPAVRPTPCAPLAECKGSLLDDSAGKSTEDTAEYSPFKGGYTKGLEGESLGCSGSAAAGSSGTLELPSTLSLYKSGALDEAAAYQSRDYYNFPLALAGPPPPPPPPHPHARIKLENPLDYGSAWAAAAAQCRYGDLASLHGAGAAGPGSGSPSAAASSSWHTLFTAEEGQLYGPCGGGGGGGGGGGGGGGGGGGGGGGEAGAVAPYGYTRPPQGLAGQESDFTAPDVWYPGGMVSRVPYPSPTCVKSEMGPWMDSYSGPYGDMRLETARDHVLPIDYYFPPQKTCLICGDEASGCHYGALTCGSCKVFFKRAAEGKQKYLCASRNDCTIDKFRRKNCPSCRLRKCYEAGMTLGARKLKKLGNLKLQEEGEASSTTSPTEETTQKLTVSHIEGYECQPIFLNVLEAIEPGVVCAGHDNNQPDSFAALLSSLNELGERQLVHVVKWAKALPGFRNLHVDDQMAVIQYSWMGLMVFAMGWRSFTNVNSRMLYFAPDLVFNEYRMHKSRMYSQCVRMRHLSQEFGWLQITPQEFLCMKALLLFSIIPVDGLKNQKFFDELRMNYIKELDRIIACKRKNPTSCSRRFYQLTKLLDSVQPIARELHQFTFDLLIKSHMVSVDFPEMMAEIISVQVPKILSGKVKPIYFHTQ
Assay: VCAP AR Degradation Assay (AR ELISA, 24 h)
Format: cell-based
Settings: for Y (lowest measured AR level normalized to DMSO control): AR degradation efficiency; for DC50: concentration of compound when AR level = 50% of DMSO control, read-out: DC50
Procedure, shortened: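 VCaP cells in DMEM with 8% FBS exposed for 24 h at 37° C to a 10-point, 1:3 series (final top concentration […]; 0.1% DMSO control). Lysate AR measured by sandwich ELISA and normalized to DMSO as percent of control. DC50, EC50 and lowest AR level (Y) from four-parameter logistic fit.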

SMILES	Y (lowest measured AR level normalized to DMSO control)	DC50 [nM]
CCc1cc(N2C(=S)N(c3ccc(C#N)c(C(F)(F)F)c3)C(=O)C2(C)C)ccc1OCCC1CCN(CC(=O)Nc2cc(C#N)cc(NC3CCC(=O)NC3=O)c2)CC1 (stereo not drawn) [Cmpd 40, 2-(4-(2-(4-(3-(4-cyano-3-(trifluoromethyl)phenyl)-5,5-dimethyl-4-oxo-2-thioxoimidazolidin-1-yl)-2-ethylphenoxy)ethyl)piperidin-1-yl)-N-(3-cyano-5-(2,6-dioxopiperidin-3-ylamino)phenyl)acetamide]	** (25%<Y<=35%)	100 to 500
CCc1cc(N2C(=S)N(c3cnc(C#N)c(C(F)(F)F)c3)C(=O)C23CCC3)ccc1OCCC1CCN([C@H](C)C(=O)Nc2cc(NC3CCC(=O)NC3=O)ccc2F)CC1 (stereo partly drawn) [Cmpd 86, (2R)-2-(4-(2-(4-(7-(6-cyano-5-(trifluoromethyl)pyridin-3-yl)-8-oxo-6-thioxo-5,7-diazaspiro[3.4]octan-5-yl)-2-ethylphenoxy)ethyl)piperidin-1-yl)-N-(5-(2,6-dioxopiperidin-3-ylamino)-2-fluorophenyl)propanamide]	* (0<Y<=25%)	100 to 500
CCc1cc(N2C(=S)N(c3ccc(C#N)c(C(F)(F)F)c3)C(=O)C2(C)C)ccc1OCCC1CCN(CC(=O)Nc2cccc(NC3CCC(=O)NC3=O)c2)CC1 (stereo not drawn) [Cmpd 17, 2-(4-(2-(4-(3-(4-cyano-3-(trifluoromethyl)phenyl)-5,5-dimethyl-4-oxo-2-thioxoimidazolidin-1-yl)-2-ethylphenoxy)ethyl)piperidin-1-yl)-N-(3-(2,6-dioxopiperidin-3-ylamino)phenyl)acetamide]	* (0<Y<=25%)	< 100
CCc1cc(N2C(=S)N(c3ccc(C#N)c(C(F)(F)F)c3)C(=O)C2(C)C)ccc1OCCC1(F)CCN(CC(=O)Nc2cc(Cl)cc(NC3CCC(=O)NC3=O)c2)CC1 (stereo not drawn) [Cmpd 90, N-(3-chloro-5-(2,6-dioxopiperidin-3-ylamino)phenyl)-2-(4-(2-(4-(3-(4-cyano-3-(trifluoromethyl)phenyl)-5,5-dimethyl-4-oxo-2-thioxoimidazolidin-1-yl)-2-ethylphenoxy)ethyl)-4-fluoropiperidin-1-yl)acetamide]	* (0<Y<=25%)	< 100
CCc1cc(N2C(=S)N(c3cnc(C#N)c(C(F)(F)F)c3)C(=O)C2(C)C)ccc1OCC[C@H]1CCN(CC(=O)Nc2cc(NC3CCC(=O)NC3=O)ccc2F)[C@H](C)C1 (stereo partly drawn) [Cmpd 77, 2-((2R,4S)-4-(2-(4-(3-(6-cyano-5-(trifluoromethyl)pyridin-3-yl)-5,5-dimethyl-4-oxo-2-thioxoimidazolidin-1-yl)-2-ethylphenoxy)ethyl)-2-methylpiperidin-1-yl)-N-(5-(2,6-dioxopiperidin-3-ylamino)-2-fluorophenyl)acetamide]	* (0<Y<=25%)	100 to 500
CCc1cc(N2C(=S)N(c3ccc(C#N)c(C(F)(F)F)c3)C(=O)C2(C)C)ccc1OCCC1CCN(CC(=O)Nc2cc(NC3CCC(=O)NC3=O)ccc2F)CC1 (stereo not drawn) [Cmpd 18, 2-(4-(2-(4-(3-(4-cyano-3-(trifluoromethyl)phenyl)-5,5-dimethyl-4-oxo-2-thioxoimidazolidin-1-yl)-2-ethylphenoxy)ethyl)piperidin-1-yl)-N-(5-(2,6-dioxopiperidin-3-ylamino)-2-fluorophenyl)acetamide]	* (0<Y<=25%)	100 to 500
CCc1cc(N2C(=S)N(c3cnc(C#N)c(C(F)(F)F)c3)C(=O)C2(C)C)ccc1OCCC1CCN([C@H](C)C(=O)Nc2cc(C#N)cc(NC3CCC(=O)NC3=O)c2)CC1 (stereo partly drawn) [Cmpd 38, (2R)-N-(3-cyano-5-(2,6-dioxopiperidin-3-ylamino)phenyl)-2-(4-(2-(4-(3-(6-cyano-5-(trifluoromethyl)pyridin-3-yl)-5,5-dimethyl-4-oxo-2-thioxoimidazolidin-1-yl)-2-ethylphenoxy)ethyl)piperidin-1-yl)propanamide]	** (25%<Y<=35%)	< 100

Next, values leading:

Y (lowest measured AR level normalized to DMSO control)	DC50 [nM]	SMILES
* (0<Y<=25%)	< 100	CCc1cc(N2C(=S)N(c3cnc(C#N)c(C(F)(F)F)c3)C(=O)C2(C)C)ccc1OCCC1(C)CCN(CC(=O)Nc2cccc(NC3CCC(=O)NC3=O)c2)CC1 (stereo not drawn) [Cmpd 61, 2-(4-(2-(4-(3-(6-cyano-5-(trifluoromethyl)pyridin-3-yl)-5,5-dimethyl-4-oxo-2-thioxoimidazolidin-1-yl)-2-ethylphenoxy)ethyl)-4-methylpiperidin-1-yl)-N-(3-(2,6-dioxopiperidin-3-ylamino)phenyl)acetamide]
* (0<Y<=25%)	< 100	CCc1cc(N2C(=S)N(c3cnc(C#N)c(C(F)(F)F)c3)C(=O)C23CCC3)ccc1OCCC1CCN([C@@H](C)C(=O)Nc2cccc(NC3CCC(=O)NC3=O)c2)CC1 (stereo partly drawn) [Cmpd 83, (2S)-2-(4-(2-(4-(7-(6-cyano-5-(trifluoromethyl)pyridin-3-yl)-8-oxo-6-thioxo-5,7-diazaspiro[3.4]octan-5-yl)-2-ethylphenoxy)ethyl)piperidin-1-yl)-N-(3-(2,6-dioxopiperidin-3-ylamino)phenyl)propanamide]
* (0<Y<=25%)	< 100	CCc1cc(N2C(=S)N(c3cnc(C#N)c(C(F)(F)F)c3)C(=O)C23CCC3)ccc1OCCC1CCN(CC(=O)Nc2cccc(NC3CCC(=O)NC3=O)c2)CC1 (stereo not drawn) [Cmpd 29, 2-(4-(2-(4-(7-(6-cyano-5-(trifluoromethyl)pyridin-3-yl)-8-oxo-6-thioxo-5,7-diazaspiro[3.4]octan-5-yl)-2-ethylphenoxy)ethyl)piperidin-1-yl)-N-(3-(2,6-dioxopiperidin-3-ylamino)phenyl)acetamide]
* (0<Y<=25%)	< 100	CC1(C)C(=O)N(c2cnc(C#N)c(C(F)(F)F)c2)C(=S)N1c1ccc(OCCC2CCN(CC(=O)Nc3cccc(NC4CCC(=O)NC4=O)c3)CC2)c(Cl)c1 (stereo not drawn) [Cmpd 5, 2-(4-(2-(2-chloro-4-(3-(6-cyano-5-(trifluoromethyl)pyridin-3-yl)-5,5-dimethyl-4-oxo-2-thioxoimidazolidin-1-yl)phenoxy)ethyl)piperidin-1-yl)-N-(3-(2,6-dioxopiperidin-3-ylamino)phenyl)acetamide]
* (0<Y<=25%)	< 100	CCc1cc(N2C(=S)N(c3cnc(C#N)c(C(F)(F)F)c3)C(=O)C2(C)C)ccc1OCCC1CCN([C@H](C)C(=O)Nc2cccc(N[C@H]3CCC(=O)NC3=O)c2)CC1 [Cmpd 47, (R)-2-(4-(2-(4-(3-(6-cyano-5-(trifluoromethyl)pyridin-3-yl)-5,5-dimethyl-4-oxo-2-thioxoimidazolidin-1-yl)-2-ethylphenoxy)ethyl)piperidin-1-yl)-N-(3-((S)-2,6-dioxopiperidin-3-ylamino)phenyl)propanamide]
* (0<Y<=25%)	< 100	CCc1cc(N2C(=S)N(c3cnc(C#N)c(C(F)(F)F)c3)C(=O)C2(C)C)ccc1OCCC1CCN([C@@H](C)C(=O)Nc2cccc(N[C@@H]3CCC(=O)NC3=O)c2)CC1 [Cmpd 44, (S)-2-(4-(2-(4-(3-(6-cyano-5-(trifluoromethyl)pyridin-3-yl)-5,5-dimethyl-4-oxo-2-thioxoimidazolidin-1-yl)-2-ethylphenoxy)ethyl)piperidin-1-yl)-N-(3-((R)-2,6-dioxopiperidin-3-ylamino)phenyl)propanamide]
* (0<Y<=25%)	< 100	C[C@H](C(=O)Nc1cccc(NC2CCC(=O)NC2=O)c1)N1CCC(CCOc2ccc(N3C(=S)N(c4cnc(C#N)c(C(F)(F)F)c4)C(=O)C3(C)C)cc2CCF)CC1 (stereo partly drawn) [Cmpd 72, (2R)-2-(4-(2-(4-(3-(6-cyano-5-(trifluoromethyl)pyridin-3-yl)-5,5-dimethyl-4-oxo-2-thioxoimidazolidin-1-yl)-2-(2-fluoroethyl)phenoxy)ethyl)piperidin-1-yl)-N-(3-(2,6-dioxopiperidin-3-ylamino)phenyl)propanamide]
** (25%<Y<=35%)	< 100	CCc1cc(N2C(=S)N(c3cnc(C#N)c(C(F)(F)F)c3)C(=O)C2(C)C)ccc1OCC1CCN(CC(=O)Nc2cc(Cl)cc(NC3CCC(=O)NC3=O)c2)CC1 (stereo not drawn) [Cmpd 81, N-(3-chloro-5-(2,6-dioxopiperidin-3-ylamino)phenyl)-2-(4-((4-(3-(6-cyano-5-(trifluoromethyl)pyridin-3-yl)-5,5-dimethyl-4-oxo-2-thioxoimidazolidin-1-yl)-2-ethylphenoxy)methyl)piperidin-1-yl)acetamide]
